Article PMC7248880, “Preclinical Incorporation Dosimetry of [^18F]FACH—A Novel ^18F-Labeled MCT1/MCT4 Lactate Transporter Inhibitor for Imaging Cancer Metabolism with PET” (Molecules, 2020)

Test: Preclinical incorporation dosimetry: whole-body PET/CT in piglets, scaled to human, OLINDA 2.1, ICRP103
Type: in vivo, juvenile pigs
Description: Three piglets (age: ~6 weeks, weight: ~13–15 kg) were fasted on the day of imaging and received an intranuscular. injection of 1 mL azaperone and 4 mL ketamine to introduce anesthesia. […] During narcosis, the animals maintained spontaneous respiration and no mandatory ventilation was applied. The subjects were sequentially imaged after an iv injection (contralateral ear vein) of 156 ± 54 MBq [^18F]FACH (0.63 ± 0.49 µg) in a PET/CT system (Biograph16, SIEMENS, Erlangen, Germany). The piglets were positioned prone with legs alongside the body on a custom-made plastic trough including a piglet head-holder (Figure 5). The PET acquisition was divided into a sequential (4 × 9 min, 3 × 12 min) and a static part (1 × 24 min, 1 × 30 min, 1 × 36 min), each of which was preceded by a low-dose CT to acquire structural data for attenuation correction (AC) and anatomical orientation (Figure 6). Post mortem, the urine was collected by bladder punctuation, weighted, and divided into three 1 mL samples for activity measurements in a gamma-counter (Packard Cobra II 5003 Auto Gamma Counting System, GMI, Ramsey, MN, USA).
PET data reconstruction was done using low-dose CT attenuation correction (AC) and an iterative OSEM algorithm with 4 iterations and 8 subsets. As the PET/CT system is in daily clinical use, it is periodically subjected to detector normalization and activity calibration. Furthermore, all peripheral activity-measuring devices to be used for the investigation (dose calibrator, gamma counter) are cross-calibrated in terms of timing and a radioactivity adjustment.
The image data were analyzed with ROVER (ABX, Radeberg, Germany; v. 3.0.46h). The organs were identified and manually delineated using 3D volumes of interest (VOI). The CT data were used for anatomical orientation and for image registration with the PET data. Relevant source organs like brain, gall bladder, large intestine, small intestine, stomach, heart, kidneys, liver, lungs, pancreas, red marrow (backbone, pelvis, sternum), spleen, thyroid, testes, skeleton (bone), and the urinary bladder were delineated and the time–activity data transformed into percentage of injected dose (%IDorgan) with Equation (2). (2) %IDorgant=Aorgant×cscant/A0t [%] where Aorgant is the activity in the organ at the time t; cscant is a calibration factor representing the theoretical body activity (derived from a whole body mask of a volume that equals the body dimentions of the animal) decay corrected to t and divided by the imaged body activity in each image frame at the time t, and A0t is the injected activity decay corrected to t0.
The dose calculation has been described by our group in detail before. Briefly, due to differences in weight, size, and metabolic rates between the animal species and the human volunteers, it is necessary to map the preclinical extracted biodistribution data to human circumstances. Thus, the animal biokinetic data (time scale and %ID values) were adapted to the human circumstances according to [22] to fit the human weight, size, and metabolic rates (Equations (3) and (4)). (3) thuman=tanimal[mhuman/manimal]^0.25 (4) [%ID]/organhuman=[%ID]/ganimal×mTBanimal[g]/mTBhuman[g]×morganhuman[g]
The TIACs were estimated by exponential fitting and the dosimetry estimation was performed using OLINDA/EXM software (v. 2.1). Finally, organ doses (OD) were estimated and multiplied by tissue weighting factors as published in ICRP103 [20].

[1] = mean of three piglets, ICRP103 wT

CCCN(CCC[18F])c1ccc(/C=C(\C#N)C(=O)O)c(OC)c1 [[^18F]FACH, (E)-2-cyano-3-{4-[(3-[^18F]fluoropropyl)(propyl)amino]-2-methoxyphenyl}acrylic acid]
Effective dose contribution HT wT, Heart Wall (FACHpig3): 8.18E-05 mSv/MBq
Effective dose contribution HT wT, Kidneys (FACHpig3): 2.59E-04 mSv/MBq
Effective dose contribution HT wT, Left colon (FACHpig3): 5.06E-04 mSv/MBq
Effective dose contribution HT wT, Liver (FACHpig3): 1.37E-03 mSv/MBq
Effective dose contribution HT wT, Lungs (FACHpig3): 9.15E-04 mSv/MBq
Effective dose contribution HT wT, Osteogenic Cells (FACHpig3): 2.03E-04 mSv/MBq
Effective dose contribution HT wT, Pancreas (FACHpig3): 7.24E-05 mSv/MBq
Effective dose contribution HT wT, Prostate (FACHpig3): 5.95E-05 mSv/MBq
Effective dose contribution HT wT, Rectum (FACHpig3): 2.92E-04 mSv/MBq
Effective dose contribution HT wT, Red Marrow (FACHpig3): 1.47E-03 mSv/MBq
Effective dose contribution HT wT, Right colon (FACHpig3): 9.75E-04 mSv/MBq
Effective dose contribution HT wT, Salivary Glands (FACHpig3): 6.33E-05 mSv/MBq
Effective dose contribution HT wT, Small Intestine (FACHpig3): 9.09E-05 mSv/MBq
Effective dose contribution HT wT, Spleen (FACHpig3): 7.43E-05 mSv/MBq
Effective dose contribution HT wT, Stomach Wall (FACHpig3): 9.98E-04 mSv/MBq
Effective dose contribution HT wT, Testes (FACHpig3): 2.90E-04 mSv/MBq
Effective dose contribution HT wT, Thymus (FACHpig3): 6.50E-05 mSv/MBq
Effective dose contribution HT wT, Thyroid (FACHpig3): 2.77E-04 mSv/MBq
Effective dose contribution HT wT, Total Body (FACHpig3): 0.00E+00 mSv/MBq
Effective dose contribution HT wT, Urinary Bladder Wall (FACHpig3): 3.52E-03 mSv/MBq
Organ equivalent dose HT, Adrenals (FACHpig3): 1.47E-02 mSv/MBq
Organ equivalent dose HT, Brain (FACHpig3): 4.10E-03 mSv/MBq
Organ equivalent dose HT, Esophagus (FACHpig3): 8.11E-03 mSv/MBq
Organ equivalent dose HT, Eyes (FACHpig3): 5.63E-03 mSv/MBq
Organ equivalent dose HT, Gallbladder Wall (FACHpig3): 8.72E-02 mSv/MBq
Organ equivalent dose HT, Heart Wall (FACHpig3): 8.86E-03 mSv/MBq
Organ equivalent dose HT, Kidneys (FACHpig3): 2.81E-02 mSv/MBq
Organ equivalent dose HT, Left colon (FACHpig3): 1.04E-02 mSv/MBq
Organ equivalent dose HT, Liver (FACHpig3): 3.42E-02 mSv/MBq
Organ equivalent dose HT, Lungs (FACHpig3): 7.62E-03 mSv/MBq
Organ equivalent dose HT, Osteogenic Cells (FACHpig3): 2.03E-02 mSv/MBq
Organ equivalent dose HT, Pancreas (FACHpig3): 7.85E-03 mSv/MBq
Organ equivalent dose HT, Prostate (FACHpig3): 1.29E-02 mSv/MBq
Organ equivalent dose HT, Rectum (FACHpig3): 1.27E-02 mSv/MBq
Organ equivalent dose HT, Red Marrow (FACHpig3): 1.22E-02 mSv/MBq
Organ equivalent dose HT, Right colon (FACHpig3): 2.01E-02 mSv/MBq
Organ equivalent dose HT, Salivary Glands (FACHpig3): 6.33E-03 mSv/MBq
Organ equivalent dose HT, Small Intestine (FACHpig3): 9.84E-03 mSv/MBq
Organ equivalent dose HT, Spleen (FACHpig3): 8.05E-03 mSv/MBq
Organ equivalent dose HT, Stomach Wall (FACHpig3): 8.32E-03 mSv/MBq
Organ equivalent dose HT, Testes (FACHpig3): 7.26E-03 mSv/MBq
Organ equivalent dose HT, Thymus (FACHpig3): 7.04E-03 mSv/MBq
Organ equivalent dose HT, Thyroid (FACHpig3): 6.93E-03 mSv/MBq
Organ equivalent dose HT, Total Body (FACHpig3): 8.63E-03 mSv/MBq
Organ equivalent dose HT, Urinary Bladder Wall (FACHpig3): 8.80E-02 mSv/MBq
ED Contr., Adrenals [1]: 1.31 × 10^−4 mSv/MBq
ED Contr., Brain [1]: 4.69 × 10^−5 mSv/MBq
ED Contr., Esophagus [1]: 3.61 × 10^−4 mSv/MBq
ED Contr., Eyes [1]: 0.00 mSv/MBq
ED Contr., Gall Bladder Wall [1]: 4.65 × 10^−4 mSv/MBq
ED Contr., Heart Wall [1]: 8.72 × 10^−5 mSv/MBq
ED Contr., Kidneys [1]: 2.42 × 10^−4 mSv/MBq
ED Contr., Left Colon [1]: 6.63 × 10^−4 mSv/MBq
ED Contr., Liver [1]: 9.34 × 10^−4 mSv/MBq
